The first test concerns the target Endothelial lipase (EL) (Homo sapiens (Human), UniProt Q9Y5X9). Nature of the test: Endothelial lipase (EL) enzymatic assay with fluorescent substrate A10070 in DMPG vesicles. The format is biochemical.
Settings: not given
Summed up: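 EL from conditioned medium of HT-1080 cells engineered to overexpress endogenous EL; HL partially purified from conditioned medium of HL-overexpressing COS cells. Enzyme preincubated with compound 30 min at 37° C in 50 mM HEPES pH 8.0, 50 mM NaCl, 1 mM CaCl2; DMPG vesicles carrying FRET substrate (0.11 mole fraction) then added.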
Endothelial lipase (EL), sequence (Q9Y5X9 21-500): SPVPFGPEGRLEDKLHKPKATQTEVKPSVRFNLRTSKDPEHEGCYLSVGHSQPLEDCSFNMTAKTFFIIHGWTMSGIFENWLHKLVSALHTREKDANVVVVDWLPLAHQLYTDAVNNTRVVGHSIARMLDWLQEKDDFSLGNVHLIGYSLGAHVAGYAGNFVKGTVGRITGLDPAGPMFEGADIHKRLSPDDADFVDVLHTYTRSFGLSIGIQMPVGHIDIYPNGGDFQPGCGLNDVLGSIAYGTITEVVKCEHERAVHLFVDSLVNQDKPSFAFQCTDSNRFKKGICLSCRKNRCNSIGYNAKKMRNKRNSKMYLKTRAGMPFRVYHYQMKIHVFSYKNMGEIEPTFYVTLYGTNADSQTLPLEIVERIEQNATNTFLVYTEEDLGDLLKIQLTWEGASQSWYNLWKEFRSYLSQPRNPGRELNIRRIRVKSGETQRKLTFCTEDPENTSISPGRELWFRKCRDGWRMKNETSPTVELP
With `CCOc1ncccc1-c1ccc2sc(C(C(=O)NCC(=O)NC3CC3)S(=O)(=O)CCOC)nc2c1` (stereo not drawn) [Example 87, N-[(cyclopropyl-carbamoyl)methyl]-2-[5-(2-ethoxypyridin-3-yl)-1,3-benzothiazol-2-yl]-2-(2-methoxyethane-sulfonyl) acetamide], it took 346 nM to reach half-maximal inhibition (IC50).
Still for that read-out and setting: the same measure for `COCCS(=O)(=O)C(C(=O)NCC(=O)NC1CC1)c1nc2ccc(-c3ccncc3)cc2s1` (stereo not drawn) [Example 289, N-[(cyclopropyl-carbamoyl)methyl]-2-(2-methoxyethane-sulfonyl)-2-[6-(pyridin-4-yl)-1,3-benzothiazol-2-yl] acetamide]: 23 nM.
`COCCS(=O)(=O)C(C(=O)NCC(=O)NC1CC1)c1nc2cc(-c3cnnc(C)c3)c(F)cc2s1` (stereo not drawn) [Example 351, N-[(cyclopropyl-carbamoyl)methyl]-2-[6-fluoro-5-(6-methylpyridazin-4-yl)-1,3-benzothiazol-2-yl]-2-(2-methoxyethane-sulfonyl)acetamide] returned an IC50 of 36 nM.
The same measure, in the same setting: as for `COC(=O)Nc1ccc(-c2cc3sc(C(C(=O)NCC(=O)NC4CC4)S(C)(=O)=O)nc3cc2OC(F)F)cc1` (stereo not drawn) [Example 607, methyl N-{4-[2-({[(cyclopropyl-carbamoyl)methyl]carbamoyl} (methanesulfonyl)methyl)-5-(difluoromethoxy)-1,3-benzothiazol-6-yl]phenyl} carbamate], the figure is 5 nM; as for `CC(C)OCCNC(=O)CNC(=O)C(c1nc2ccc(-c3ccc(F)nc3)cc2s1)S(=O)(=O)c1ccc(F)cc1` (stereo not drawn) [Example 455, 2-(4-fluorobenzene-sulfonyl)-2-[6-(6-fluoropyridin-3-yl)-1,3-benzothiazol-2-yl]-N-({[2-(propan-2-yloxy)ethyl]carbamoyl}methyl)acetamide], 100 nM.
The molecule `COCCS(=O)(=O)C(C(=O)NCC(=O)NCCOC(C)C)c1nc2cc(-c3ccc(F)nc3)c(F)cc2s1` (stereo not drawn) [Example 352, 2-[6-fluoro-5-(6-fluoropyridin-3-yl)-1,3-benzothiazol-2-yl]-2-(2-methoxyethane-sulfonyl)-N-({[2-(propan-2-yloxy)ethyl]carbamoyl}methyl)acetamide] yielded an IC50 of 14 nM. This IC50 lies about 7.1-fold lower than the previous one.
Molecule `CC(C)S(=O)(=O)C(C(=O)NCC(=O)NC1CC1)c1nc2cc(C(F)(F)F)c(Br)cc2s1` (stereo not drawn) [Example 179, 2-[6-bromo-5-(trifluoromethyl)-1,3-benzothiazol-2-yl]-N-[(cyclopropyl-carbamoyl)methyl]-2-(propane-2-sulfonyl) acetamide] had an IC50 of 82 nM.
Regarding `CS(=O)(=O)C(C(=O)NCC(=O)NC1CC1)c1nc2ccc(-c3ccc(-n4ccnc4)cc3)cc2s1` (stereo not drawn) [Example 580, N-[(cyclopropyl-carbamoyl)methyl]-2-{6-[4-(1H-imidazol-1-yl)phenyl]-1,3-benzothiazol-2-yl}-2-methanesulfonyl-acetamide], the IC50 worked out at 12 nM.
In the case of `O=C(CNC(=O)C(c1nc2cc(-c3ccc(F)nc3)ccc2s1)S(=O)(=O)CCC(F)(F)F)NC1CC1` (stereo not drawn) [Example 12, N-[(cyclopropyl-carbamoyl)methyl]-2-[5-(6-fluoropyridin-3-yl)-1,3-benzothiazol-2-yl]-2-(3,3,3-trifluoropropane-sulfonyl) acetamide], the IC50 stood at 7 nM.
Molecule `COCCS(=O)(=O)C(C(=O)NCC(=O)NC1CC1)c1nc2cc(-c3ccc4[nH]c(=O)ccc4c3)c(F)cc2s1` (stereo not drawn) [Example 347, N-[(cyclopropyl-carbamoyl)methyl]-2-[6-fluoro-5-(2-oxo-1,2-dihydroquinolin-6-yl)-1,3-benzothiazol-2-yl]-2-(2-methoxyethane-sulfonyl)acetamide] yielded an IC50 of 18 nM.
Same read-out and setting: the same measure for `Cc1cc2nc(C(C(=O)NCC(=O)NC3CC3)S(=O)(=O)C(C)C)sc2cc1-c1ccc(C#N)nc1` (stereo not drawn) [Example 254, 2-[6-(6-cyanopyridin-3-yl)-5-methyl-1,3-benzothiazol-2-yl]-N-[(cyclopropyl-carbamoyl)methyl]-2-(propane-2-sulfonyl)acetamide]: 9 nM.
`COCCS(=O)(=O)C(C(=O)NCC(=O)NC1(c2ccccn2)CC1)c1nc2ccc(-c3ccc(F)nc3)cc2s1` (stereo not drawn) [Example 388, 2-[6-(6-fluoropyridin-3-yl)-1,3-benzothiazol-2-yl]-2-(2-methoxyethane-sulfonyl)-N-({[1-(pyridin-2-yl)cyclopropyl]carbamoyl}methyl) acetamide] had a concentration for half-maximal inhibition (IC50) of 48 nM.
With `COCCS(=O)(=O)C(C(=O)NCC(=O)NC1CC1)c1nc2cc(-c3ccc(COC)cc3)ccc2s1` (stereo not drawn) [Example 338, N-[(cyclopropyl-carbamoyl)methyl]-2-(2-methoxyethane-sulfonyl)-2-{5-[4-(methoxymethyl)phenyl]-1,3-benzothiazol-2-yl}acetamide], half-maximal inhibition (IC50) required 42 nM.
On to `COCCS(=O)(=O)C(C(=O)NCC(=O)NC1CC1)c1nc2ccc(-c3ccc(=O)n(C)c3)cc2s1` (stereo not drawn) [Example 315, N-[(cyclopropyl-carbamoyl)methyl]-2-(2-methoxyethane-sulfonyl)-2-[6-(1-methyl-6-oxo-1,6-dihydropyridin-3-yl)-1,3-benzothiazol-2-yl}acetamide], for which the IC50 came to 12 nM. This IC50 is about 3.5-fold lower than that of the molecule before.
`CS(=O)(=O)C(C(=O)NCC(=O)NC1CC1)c1nc2cc(F)c(-c3ccc(-n4ccccc4=O)cc3)cc2s1` (stereo not drawn) [Example 200, N-[(cyclopropyl-carbamoyl)methyl]-2-{5-fluoro-6-[4-(2-oxo-1,2-dihydropyridin-1-yl)phenyl]-1,3-benzothiazol-2-yl}-2-methanesulfonyl-acetamide]: the IC50 came to 8 nM.
The molecule `COCCNC(=O)c1ccc(-c2ccc3nc(C(C(=O)NCC(=O)NC4CC4)S(=O)(=O)c4ccc(F)cc4)sc3c2)cc1` (stereo not drawn) [Example 450, 4-[2-({[(cyclopropyl-carbamoyl)methyl]carbamoyl}(4-fluorobenzene-sulfonyl)methyl)-1,3-benzothiazol-6-yl]-N-(2-methoxyethyl) benzamide] came in with an IC50 of 19 nM.
`CS(=O)(=O)C(C(=O)NCC(=O)NC1CC1)c1nc2cc(F)c(-c3ccc(N4CCCCC4=O)cc3)cc2s1` (stereo not drawn) [Example 201, N-[(cyclopropyl-carbamoyl)methyl]-2-{5-fluoro-6-[4-(2-oxopiperidin-1-yl)phenyl]-1,3-benzothiazol-2-yl}-2-methanesulfonyl-acetamide] came in with an IC50 of 10 nM.
For the molecule `CS(=O)(=O)C(C(=O)NCC(=O)NC1CC1)c1nc2cc(F)c(-c3ccc(NC(N)=O)cc3)cc2s1` (stereo not drawn) [Example 3, 2-{6-[4-(carbamoyl-amino)phenyl]-5-fluoro-1,3-benzothiazol-2-yl}-N-[(cyclopropyl-carbamoyl)methyl]-2-methanesulfonyl-acetamide], half-maximal inhibition (IC50) required 3 nM.
`CC(C)(O)CNC(=O)c1ccc(-c2ccc3nc(C(C(=O)NCC(=O)NC4CC4)S(C)(=O)=O)sc3c2)cc1` (stereo not drawn) [Example 567, 4-[2-({[(cyclopropyl-carbamoyl)methyl]carbamoyl} (methanesulfonyl)methyl)-1,3-benzothiazol-6-yl]-N-(2-hydroxy-2-methylpropyl) benzamide] returned an IC50 of 4 nM. This IC50 and that of the molecule before are within 1.5-fold of each other.
In turn, `CC(C)S(=O)(=O)C(C(=O)NCC(=O)NC1CC1)c1nc2cc(F)c(-c3ccc4c(c3)CNC4=O)cc2s1` (stereo not drawn) [Example 236, N-[(cyclopropyl-carbamoyl)methyl]-2-[5-fluoro-6-(1-oxo-2,3-dihydro-1H-isoindol-5-yl)-1,3-benzothiazol-2-yl]-2-(propane-2-sulfonyl) acetamide] yielded a 50% inhibitory concentration (IC50) of 16 nM.
`COCCS(=O)(=O)C(C(=O)NCC(=O)NC1CC1)c1nc2cc(-c3cnc(-n4cccn4)nc3)c(F)cc2s1` (stereo not drawn) [Example 131, N-[(cyclopropyl-carbamoyl)methyl]-2-{6-fluoro-5-[2-(1H-pyrazol-1-yl)pyrimidin-5-yl]-1,3-benzothiazol-2-yl}-2-(2-methoxyethane-sulfonyl) acetamide] showed an IC50 of 131 nM.
For `O=C(CNC(=O)C(c1nc2cc(F)c(-c3ccc(NC(=O)OCc4ccccc4)nc3)cc2s1)S(=O)(=O)CCC(F)(F)F)NC1CC1` (stereo not drawn) [Example 554, benzyl N-{5-[2-({[(cyclopropyl-carbamoyl)methyl]carbamoyl}(3,3,3-trifluoropropane-sulfonyl)methyl)-5-fluoro-1,3-benzothiazol-6-yl]pyridin-2-yl} carbamate], the IC50 is 3 nM.
Same read-out and setting: as for `Cc1cc(-c2cc3sc(C(C(=O)NCC(=O)NC4CC4)S(=O)(=O)N4CCOCC4)nc3cc2F)cnn1` (stereo not drawn) [Example 487, N-[(cyclopropyl-carbamoyl)methyl]-2-[5-fluoro-6-(6-methylpyridazin-4-yl)-1,3-benzothiazol-2-yl]-2-(morpholine-4-sulfonyl) acetamide], the figure is 93 nM; as for `COC(=O)Nc1ccc(-c2cc3nc(C(C(=O)NCC(=O)NC4CC4)S(=O)(=O)C(C)C)sc3cc2F)cc1` (stereo not drawn) [Example 269, methyl N-{4-[2-({[(cyclopropyl-carbamoyl)methyl]carbamoyl} (propane-2-sulfonyl)methyl)-6-fluoro-1,3-benzothiazol-5-yl]phenyl}carbamate], 6 nM; as for `CC(C)S(=O)(=O)C(C(=O)NCC(=O)NC1CC1)c1nc2cc(F)c(-c3cnc(=O)[nH]c3)cc2s1` (stereo not drawn) [Example 232, N-[(cyclopropyl-carbamoyl)methyl]-2-[5-fluoro-6-(2-oxo-1,2-dihydropyrimidin-5-yl)-1,3-benzothiazol-2-yl]-2-(propane-2-sulfonyl) acetamide], 122 nM.
As for `COC(=O)N(C)c1ccc(-c2ccc3nc(C(C(=O)NCC(=O)NC4CC4)S(C)(=O)=O)sc3c2)cc1` (stereo not drawn) [Example 23, methyl N-{4-[2-({[(cyclopropyl-carbamoyl)methyl]carbamoyl} (methanesulfonyl)methyl)-1,3-benzothiazol-6-yl]phenyl}-N-methylcarbamate], the IC50 worked out at 14 nM. This IC50 is about 8.7-fold lower than that of the molecule before.

Staying with this test, now noted: EL from conditioned media of HT-1080 cells; 30 min preincubation at 37° C.
Regarding `Cc1ncc(-c2cc3sc(C(C(=O)NCC(=O)NC4CC4)S(C)(=O)=O)nc3cc2OC(F)F)cn1` (stereo not drawn) [Example 601, N-[(Cyclopropylcarbamoyl)methyl]-2-[5-(difluoromethoxy)-6-(2-methylpyrimidin-5-yl)-1,3-benzothiazol-2-yl]-2-methanesulfonylacetamide], the IC50 was found to be 19 nM. In other words, the double-digit nanomolar range.

Usually IC50 stands for the concentration that inhibits the measured activity by half.

These data come from patent publication US10173991B2, “Sulfone amide linked benzothiazole inhibitors of endothelial lipase” (BRISTOL-MYERS SQUIBB COMPANY, priority 2014, dated 2019).
